Among the data in patent US20180311357A1, “EXTERNAL PREPARATION AND METHOD FOR PRODUCING SAME” (SEKISUI CHEMICAL CO., LTD., priority 2015, published 2018) are octanol/water partition coefficient values, retold here.

The conditions of this series: pH 7. As to the method:
In the present invention, the octanol/water partition coefficient is obtained as follows. After the chemical is added into a flask containing octanol and an aqueous buffer at pH 7, the mixture is shaken. Based on the chemical concentration in each phase, the octanol/water partition coefficient is calculated by the following equation. Octanol/water partition coefficient=Log 10(concentration in octanol phase/concentration in aqueous phase)

In turn, `O.O.O.O.O.O=P([O-])(O)C(O)(Cc1cccnc1)P(=O)(O)O.O=P([O-])(O)C(O)(Cc1cccnc1)P(=O)(O)O.[Na+].[Na+]` [hemipenta hydrate risedronate monosodium] registered an octanol/water partition coefficient of −5.0.
